In US12064398B2, “Parenteral formulations” (Jazz Pharmaceuticals Research UK Limited, priority 2016, dated 2024):

Assay: Solubility screening of CBD in solvents/diluents/surfactants
Format: physicochemical
Method: […] All the vials were sonicated tor 5 minutes and then left on a roller mixer, mixing for 48 hours. The roller mixer was covered with aluminium foil to prevent light exposure.
After 48 hours, all samples were centrifuged, and the supernatants taken (250 or 500 μL) using a Gilson pipette and added into a 10 ml volume flask. Methanol was used to make up the volume and the samples were tested by HPLC. Sample numbers 5, 9 and 10 were assayed using visual observation as the amount of API that could be added was so high.

With C=C(C)[C@@H]1CCC(C)=C[C@H]1c1c(O)cc(CCCCC)cc1O [CBD, cannabidiol] the “ASSAY CBD” value (Crodosal HS (0.5% w/v), HPLC) was 2.6529 mg/mL, the “ASSAY CBD” value (Crodosal HS (1% w/v), HPLC) was 5.4462 mg/mL and the “ASSAY CBD” value (Crodosal HS (2% w/v), HPLC) was 5.0344 mg/mL. For the same compound, the “ASSAY CBD” value (Crodosal HS (3% w/v), HPLC) was 6.3465 mg/mL, the “ASSAY CBD” value (Crodosal HS (4% w/v), HPLC) was 7.5569 mg/mL and the “ASSAY CBD” value (Crodosal HS (5% w/v), HPLC) was 7.9983 mg/mL. The “ASSAY CBD” value (ETOH (0.5% v/v), HPLC) was 0.0496 mg/mL, the “ASSAY CBD” value (ETOH (1% v/v), HPLC) was 0.0426 mg/mL and the “ASSAY CBD” value (ETOH (3% v/v), HPLC) was 0.0054 mg/mL. For the same compound, the “ASSAY CBD” value (ETOH (5% v/v), HPLC) was 0.0244 mg/mL, the “ASSAY CBD” value (ETOH (100% v/v), visual observation) was over 1000 mg/mL and the “ASSAY CBD” value (Glucose (5% w/v), HPLC) was 0.0008 mg/mL. The “ASSAY CBD” value (Glucose (10% w/v), HPLC) was 0.2379 mg/mL, the “ASSAY CBD” value (Glycerol (10% v/v), HPLC) was 0.0029 mg/mL and the “ASSAY CBD” value (Glycerol (20% v/v), HPLC) was 0.0437 mg/mL. The “ASSAY CBD” value (Glycerol (40% v/v), HPLC) was 0.0859 mg/mL, the “ASSAY CBD” value (Mannitol (5% w/v), HPLC) was 0.0009 mg/mL and the “ASSAY CBD” value (Mannitol (10% w/v), HPLC) was 0.0148 mg/mL. The “ASSAY CBD” value (PEG400 (5% v/v), HPLC) was 0.1596 mg/mL, the “ASSAY CBD” value (PEG400 (15% v/v), HPLC) was 0.1946 mg/mL and the “ASSAY CBD” value (PEG400 (25% v/v), HPLC) was 0.1617 mg/mL. For the same compound, the “ASSAY CBD” value (PEG400 (100% v/v), visual observation) was over 400 mg/mL, the “dissolution of the 10 mg of CBD added” value (PEG400 and ethanol increased to 50% in water) was “did not dissolve completely” and the “ASSAY CBD” value (PVP K12 (1% w/v), HPLC) was 0.0615 mg/mL. The “ASSAY CBD” value (PVP K12 (2% w/v), HPLC, high assay result probably due to sampling problem) was 0.1746 mg/mL, the “ASSAY CBD” value (PVP K12 (3% w/v), HPLC) was 0.0639 mg/mL and the “ASSAY CBD” value (PVP K12 (5% w/v), HPLC) was 0.0157 mg/mL. The “ASSAY CBD” value (PVP K17 (1% w/v), HPLC) was 0.0031 mg/mL, the “ASSAY CBD” value (PVP K17 (2% w/v), HPLC) was 0.0433 mg/mL and the “ASSAY CBD” value (PVP K17 (3% w/v), HPLC) was 0.0409 mg/mL. For the same compound, the “ASSAY CBD” value (PVP K17 (5% w/v), HPLC) was 0.2360 mg/mL, the “ASSAY CBD” value (Pluronic F68 (1% w/v), HPLC) was 0.1403 mg/mL and the “ASSAY CBD” value (Pluronic F68 (2% w/v), HPLC) was 0.5209 mg/mL. The “ASSAY CBD” value (Pluronic F68 (3% w/v), HPLC) was 0.5042 mg/mL, the “ASSAY CBD” value (Pluronic F68 (5% w/v), HPLC) was 1.0654 mg/mL and the “ASSAY CBD” value (Polysorbate 80 (0.5% w/v), HPLC) was 3.2600 mg/mL. For the same compound, the “ASSAY CBD” value (Polysorbate 80 (1% w/v), HPLC) was 6.0415 mg/mL, the “ASSAY CBD” value (Polysorbate 80 (3% w/v), HPLC) was 22.9779 mg/mL and the “ASSAY CBD” value (Polysorbate 80 (5% w/v), HPLC) was 30.6529 mg/mL. For the same compound, the “ASSAY CBD” value (Saline (0.45% w/v), HPLC) was 0.0021 mg/mL, the “ASSAY CBD” value (Saline (0.9% w/v), HPLC) was 0.0551 mg/mL and the “ASSAY CBD” value (Sucrose (5% w/v), HPLC) was 0.0202 mg/mL. For the same compound, the “ASSAY CBD” value (Sucrose (10% w/v), HPLC) was 0.0822 mg/mL, the “ASSAY CBD” value (Trehalose (5% w/v), HPLC) was 0.0600 mg/mL and the “ASSAY CBD” value (Trehalose (10% w/v), HPLC) was 0.0124 mg/mL. For the same compound, the “ASSAY CBD” value (t-butyl alcohol (TBA), (100% v/v), visual observation) was over 600 mg/mL.
